Measurements published in patent US20080306047A1, “Use of Aza-Phenylalanine Compounds For Treating Cardiac Arrhythmia” (priority 2005, published 2008).

Key:
isolated rat hearts [1] = experiment: Reperfusion-induced arrhythmia in isolated rat hearts (Langendorff) subjected to 40-min global ischemia; parameters: species or system Wistar rats; details: 40-min ischemia, 50 min reperfusion, drug 1 μM in K-H solution, mean ± SEM
Protocol: Wistar rats (230-330 g) are anaesthetized by intraperitoneal injection of urethane (0.7 ml 20% w/v solution/100 g body weight), followed by intraperitoneal injection of heparin (2500 IU/rat). Having opened the thorax a cannula filled with cold Krebs-Henseleit (K-H) solution is inserted into the ascending aorta. After that the heart is excised, it is connected to Langendorff's apparatus and perfused with K-H solution (K-H solution, in mM: 118.6 NaCl; 4.7 KCl; 11.1 glucose; 25 NaHCO3; 1.66 MgSO4; 1.2 NaH2PO4, 2.52 […]; pH=7.4) under constant pressure (60 cm H2O). Prior to use, the K-H perfusion solution is passed through a cellulose acetate filter (pore size 5 μm) to remove any particulate impurities. The perfusion solution is kept at 38.5° C. and gassed with 95% O2 and 5% CO2. Two silver (AgCl) electrodes are set on the surface of the heart in the direction of electrical axis of the heart for recording electrocardiogram. Electrodes are placed on the heart in such a position that a sufficient amplitude of P wave and QRS complex is obtained. The following experimental groups are studied: 1) isolated hearts are perfused with oxygenated K-H solution for 30 min followed by 40 min of global ischemia and followed by 50 min of reperfusion with oxygenated K-H solution; 2) isolated hearts are perfused with oxygenated K-H solution for 20 min, followed by 10 min perfusion with experimental drug dissolved in K-H and then the hearts are exposed to 40 min of global ischemia followed by 50 min reperfusion with experimental drug dissolved in K-H. The used experimental drugs are compounds of formulae IV, V and VI as defined above. As a positive control direct thrombin inhibitor argatroban and low molecular weight heparin nadroparin are used. The hearts are monitored for the duration of proarrhythmic events according to the Lambeth convention (Walker et al., Cardiovascular Res 1988; 22: 447-455). Lactate dehydrogenase (LDH) release rate is determined spectophotometrically (Wroblevski & LaDue, Proc Exp Biol Med 1955; 90: 210-213) in the coronary effluent and is expressed in μkat per minute and per weight of the heart (Grasic Kuhar et al. Eur J Pharmacol 2004; 488: 137-46).

isolated rat hearts [2] = experiment: Reperfusion-induced arrhythmia in isolated rat hearts (Langendorff), 25-min global no-flow ischemia, 30 min reperfusion; parameters: species or system Wistar rats; details: 1 μM and 10 μM (+DMSO 500 μL/L), n=12
Protocol: Hearts from male Wistar rats (300-370 g) anesthetized with diethyl-ether inhalation were perfused with Krebs-Henseleit buffer at 37° C. gassed with carbogen in Langendorff mode as described (Onody A et al., Cardiovasc Res. 2003, 58: 663-670). After an initial 15 min aerobic, normothermic perfusion period, hearts are subjected to 25-min of global, no-flow, normothermic ischemia, followed by 30 min normoxic, normothermic reperfusion. Measured parameters were heart rate and incidence of reperfusion-induced ventricular fibrillation (VF) and ventricular tachycardia (VT). Epicardial electrocardiogram was recorded throughout the experimental protocol to determine heart rate, VF and VT according to the Lambeth conventions (Walker et al., Cardiovasc Res. 1988; 22: 447-455) as described (Csonka et al., 2003; J Cardiovasc Pharmacol 41: 916-922; Ferdinandy et al., Cardiovasc Res. 1995; 58: 663-670.). Recording and evaluation of the ECG was performed using the SPEL Advanced Isosys system (Experimetria Ltd, Budapest, Hungary). Experimental groups were designed as follows: control, solvent (DMSO 500 μL/L), compound of formula IV at 1 μM (+DMSO 500 μL/L), compound of formula IV at 10 μM (+DMSO 500 μL/L), positive control: nifedipine at 0.5 μM (+DMSO 500 μL/L). Animals were randomly assigned to the different groups, however, perfusions were done in 4 parallel experiments within a group (n=12 in each group). The perfusion medium contained the drugs throughout the entire perfusion protocol in the treated groups. HR was compared to the solvent-treated group using ANOVA followed by Dunn's test. The incidence of VF and VT were compared with Chi^2 test in all groups, than each group was compared to the solvent-treated group using the Fischer's exact test.
Compound of formula IV was tested at 10 μM (Compound of formula IV, 10 μM) and 1 μM (Compound of formula IV, 1 μM), nifedipine was tested at 0.5 μM. Chi^2 test followed by the Fischer's exact test. * p<0.05; ** p<0.01; ## p<0.01 (all groups compared to DMSO group)

| SMILES | Duration VF (ventricular fibrillation) (isolated rat hearts [1]) | Duration VT (ventricular tachycardia) (isolated rat hearts [1]) | Duration of all proarrhythmic events (VT, VF, extrasystolia and asystolia) (isolated rat hearts [1]) | incidence of reperfusion-induced ventricular fibrillation (VF) (isolated rat hearts [2]; compared to DMSO group) | incidence of reperfusion-induced ventricular tachycardia (VT) (isolated rat hearts [2]; compared to DMSO group) | heart rate (HR) (isolated rat hearts [2]; compared to solvent-treated group) |
| --- | --- | --- | --- | --- | --- | --- |
| CC1CNc2c(cccc2S(=O)(=O)N[C@@H](CCCNC(=N)N)C(=O)N2CC[C@@H](C)C[C@@H]2C(=O)O)C1 (stereo partly drawn) [Argatroban, argatroban, reference compound] | 583.6 ± 228.6 s | 828.7 ± 233.7 s | 1731.0 ± 445.0 s |  |  |  |
| N=C(N)c1cccc(CN(NS(=O)(=O)c2ccc3ccccc3c2)C(=O)N2CCCCCC2)c1 [Compound IV] | 78.6 ± 42.6 s | 87.2 ± 53.3 s | 353.3 ± 148.1 s | concentration-dependently decreased | not significantly changed | not significantly changed |
| N=C(N)c1cccc(CN(NS(=O)(=O)Cc2ccccc2F)C(=O)N2CCCCCC2)c1 [Compound VI] | 596.0 ± 469.4 s | 99.5 ± 77.95 s | 810.2 ± 461.4 s |  |  |  |
| N/C(=N\O)c1cccc(CN(NS(=O)(=O)c2ccc3ccccc3c2)C(=O)N2CCCCCC2)c1 [Compound V] | 149.3 ± 86.4 s | 60.0 ± 30.8 s | 278.3 ± 104.2 s |  |  |  |
